≈ marks a conversion by molar mass, not a printed value. Where two headings read alike, the source gives them in different places.
Tests used:
OLE1 promoter = experiment: OLE1 promoter-lacZ reporter induction (chemiluminescence); assay type: cell-based, S. cerevisiae
Excerpt: (§1) The OLE1, YOL101c, and YGL039w promoters (along with their respective ATG translation start sites) each were, individually, flised to a lacZ reporter gene (which lacked an ATG translation start site) and introduced in the vector pRS415. The resulting reporter plasmids were then, separately, introduced into a multi-drug resistant yeast strain, thereby producing PL1, P41, and Ml, which are identical to each other except that PL1 carries the […], and M1 carries the YGL039w promoter (Millennium Pharmaceuticals, Inc., MMB#1495, 1497 and 1604, respectively). These yeast strains can be readily used to measure the level of activity of the OLE1, YOL101c, or YGL039w promoter by measuring expression of the lacZ gene. Enzymatic and colorimetric assays for measuring lacZ gene expression are well known in the art and can be used in the invention.
For example, the test compounds can be tested at concentrations of 25 μM and 100 μM. In a convenient high throughput screening method, the test compounds can be assayed in the wells of a multiple-well (e.g., 96-well) plastic plate (e.g., Packard, Inc. Cat. # 6005181), with each well containing a different test compound. Thus, one plate can contain the test compounds at a concentration of 25 μM, while another plate contains the test compounds at a concentration of 100 μM. Each well also contains up to 2.5% DMSO.
Cerulenin is used as a positive control in wells lacking a test compound. A stock solution of cerulenin (2,3-Epoxy-4-oxo-[…]) can be prepared to a concentration of 10 mg/ml in DMSO and stored at −20° C.
Induction of OLE1 Promoter Activity: The yeast glycerol stocks described above are used to prepare fresh yeast cultures that are used in the screening assays. The cell suspension, if frozen, is thawed at 37° C., and 33 μl of the stock is added to 12 ml of SC-Leu medium. The culture then is incubated in a shaking Erlemneyer flask at 30° C. overnight (approximately 14-15 hours). The OD600 of the culture then is measured, with a culture having an OD600 of 0.05-0.15 being suitable for use. […] 1; if necessary, the culture can be diluted with SC-Leu medium to obtain the desired OD600. A 100 μI aliquot of the yeast culture then is added to each well of the 96-well plate containing a test compound, and the cultures are incubated at 30° C. for approximately 6 hours.
To assay for an increase in the activity of the OLE1 promoter, an increase in the level of the lacZ reporter gene expression is measured. A 100 μl aliquot of 2 X substrate buffer is added to each well of the plate. To produce a 100 ml sample of 2 X substrate buffer, the following components are mixed within 1 hour of use, and kept at room temperature: 4.0 ml of GALACTON-STAR™ substrate ((3-chloro-5-(4-methoxyspiro { 1,2-dioxetane-3,2′-(4′chloro)-tricyclo-[3.3.1.1 ^3,7] decan} -4-yl)phenyl-B-D-galactopyranoside); Tropix, Inc., Cat. #GS100), 20.0 ml of SAPHIRE II™ luminescence signal enhancer (Tropix, Inc., Cat. #LAX250), and 76 ml of Lysis Buffer (0.026% Na Deoxycholic acid, 0.053% CTAB, 265 mM NaCl, 395 mM HEPES, pH 7.5). The plates are incubated at room temperature for 45 minutes, before vortexing them for 30 seconds at a low to moderate speed.
A chemiluminescent signal is produced by reaction of β-galactosidase with the substrate. Chemiluminescence can be measured using a TopCount-HTS, with the data mode set to measure […], and with a count time of 0.1 minute. Generally, chemiluminescence should be measured before significant signal decay occurs (i.e., within approximately 90 minutes of initiating the reaction).
Screening plates containing 80,000 individual small molecule compounds (comprising a diversity file) were prepared at concentrations of 100 μM in 96-well plastic clear-bottom plates (Packard, Inc. Cat. # 6005181).

YOL101c promoter = experiment: YOL101c promoter-lacZ reporter induction (chemiluminescence); assay type: cell-based, S. cerevisiae
Excerpt: as §1

YGL039w promoter = experiment: YGL039w promoter-lacZ reporter induction; assay type: cell-based, S. cerevisiae
Excerpt: as §1
Having determined that antiflingal agents like cerulenin increase the activity of the OLE1 and YOL101 c promoters, yeast strains containing one or both promoters each operably linked to a reporter gene (e.g., lacZ) can be used in a method for determining whether a test compound is an inhibitor of fungal fatty acid synthesis and is thus a candidate antifungal agent. Such a method can be carried out as follows. […]

S. cerevisiae mdr mutant = experiment: Fungal growth inhibition (OD600) / MIC testing; assay type: cell-based; settings: for MIC: Saccharomyces cerevisiae
Method: Assay of Fungal Growth Inhibition: If desired, the ability of each candidate compound to inhibit fungal growth can readily be measured as follows. After incubating the yeast cultures and test compounds for 6 hours in the 96-well plates, as described above, the OD600 of the plates is measured (e.g., using a Wallac/Victor 2 plate reader). The OD600 can be measured before or after the above-described chemiluminescent assay. A test compound that decreases the OD600 of a yeast culture, relative to the OD600 obtained in the absence of the candidate compound, is an antifungal agent.
For the assay, the reporter strains were grown at 30° C. overnight (approximately 14-15 hours) in SC-Leu medium. Typically, the cultures were grown to an OD600 of 0.1, though cells at OD600 of 0.05-0.15 were also appropriate. Plates were then seeded with a 100 μl aliquot of the yeast culture and incubated at 30° C. for approximately 6 hours. To identify antifungal compounds (those affording growth inhibition), the OD600 was measured using a Wallac/Victor 2 plate reader.
The library of 80,000 small molecule compounds was screened for FAS inhibitors at concentration of 100 μM with the Pole1-lacZ reporter strain. Hits were defined as compounds that afforded 2-fold Pole1-lacZ induction. The primary screen yielded 850 hits (1.1% hit rate) as defined above. Among these, 182 were deemed structurally acceptable and subjected to retesting using the same Pole1-IacZ induction assay and an antifungal assay by growth inhibition in MIC testing.

[1] = target: T1, Saccharomyces cerevisiae FAS complex (Saccharomyces cerevisiae, UniProt P07149+P19097); experiment: FAS assay measuring NADPH oxidation; assay type: biochemical
T1 construct: A FAS assay using partially purified S. cerevisiae FAS complex was used to measure NADPH oxidation; tissue Sigma; host or cells: yeast extract (Sigma), FAS complex partially purified after Stoops et al. 1978
Method: In another inhibition assay, Saccharomyces cerevisiae FAS complex was obtained from a yeast extract (Sigma) and assayed as described in (Stoops et al., J.B.C., 253:4464-4475, 1978). A crude preparation of Candida albicans FAS can be prepared from a 1-21 YPD overnight culture of SC5314 following essentially the protocol used for S. cerevisiae FAS, with the exception that the last purification step by gel filtration was omitted. The assay cocktail contains: 0.14 mM NADPH, 0.36 mM acetyl-CoA, 0.18 mM malonyl-CoA, 5 mM EDTA, 8 mM DTT, 0.1 M MES pH 6, 100 μM compound in 1% DMSO, and fungal FAS extract. Changes in NADPH oxidation are followed for 1 hour using a BMG fluorimeter set at 340 nm excitation and 460 nm emission. The inhibition of fatty acid synthesis in these assays is expressed as a percent activity compared to the one obtained using 1% DMSO.
A FAS assay using partially purified S. cerevisiae FAS complex was used to measure NADPH oxidation as described herein.

[2] = test system: S. cerevisiae MMB1493 or C. albicans SC5314 or Y01.06; experiment: 14C-acetate incorporation into fatty acids; assay type: cell-based; settings: 10 minutes preincubation, 10 minutes with 14C-acetate, 30° C.
Method: Generally, ^14C-acetate incorporation is measured essentially as described in Kuhajda et al., P.N.A.S., 91:6379-6383, 1994. Logarithmically growing cells (4^8 cells of S. cerevisiae MMB1493 or C. albicans SC5314 or Y01.06) were preincubated with 100 μM compounds in DMSO for 10 minutes at 30° C. ^14C-Acetate was added to 20 μCi, mixed and further incubated for 10 minutes at 30° C. Fatty acids were recovered by alkaline ethanolysis (7.5% KOH in 90% ethanol, 1 00ul) at 50° C. for 1 hour, followed by acidification with concentrated HCl (15 μl) and petroleum ether extraction. The radioactivity in the organic layer was counted using a Beckman LS650 multipurpose scintillation counter using Betamax (ICN) scintillation fluid. Cerulenin was used as control at 100 μM; at this concentration 80-90% inhibition was routinely observed in this assay.

[3] = test system: OLE1, YOL101c, and YGL039w genes; experiment: Transcriptional profiling (TxP) of yeast treated with FAS inhibitor; assay type: cell-based; settings: 0.1, 0.2 and 0.3 μM; 3 and 5 hour time points
Method: Logarithmically growing hypersensitive yeast MMB 1489 (Δpdr5 Δsnq2) cells were treated with cerulenin at 0.5 X, 1 X, and 1.5 X the MIC value (0.1, 0.2 and 0.3 μM) and cells were harvested at 1, 3 and 5 hour time points following drug treatment. Total RNA was obtained from cell pellets treated with 0.1, 0.2, and 0.3 μM cerulenin. […] Following hybridization, the data was normalized, filtered and analyzed.

T1 sequence (P07149 whole entry): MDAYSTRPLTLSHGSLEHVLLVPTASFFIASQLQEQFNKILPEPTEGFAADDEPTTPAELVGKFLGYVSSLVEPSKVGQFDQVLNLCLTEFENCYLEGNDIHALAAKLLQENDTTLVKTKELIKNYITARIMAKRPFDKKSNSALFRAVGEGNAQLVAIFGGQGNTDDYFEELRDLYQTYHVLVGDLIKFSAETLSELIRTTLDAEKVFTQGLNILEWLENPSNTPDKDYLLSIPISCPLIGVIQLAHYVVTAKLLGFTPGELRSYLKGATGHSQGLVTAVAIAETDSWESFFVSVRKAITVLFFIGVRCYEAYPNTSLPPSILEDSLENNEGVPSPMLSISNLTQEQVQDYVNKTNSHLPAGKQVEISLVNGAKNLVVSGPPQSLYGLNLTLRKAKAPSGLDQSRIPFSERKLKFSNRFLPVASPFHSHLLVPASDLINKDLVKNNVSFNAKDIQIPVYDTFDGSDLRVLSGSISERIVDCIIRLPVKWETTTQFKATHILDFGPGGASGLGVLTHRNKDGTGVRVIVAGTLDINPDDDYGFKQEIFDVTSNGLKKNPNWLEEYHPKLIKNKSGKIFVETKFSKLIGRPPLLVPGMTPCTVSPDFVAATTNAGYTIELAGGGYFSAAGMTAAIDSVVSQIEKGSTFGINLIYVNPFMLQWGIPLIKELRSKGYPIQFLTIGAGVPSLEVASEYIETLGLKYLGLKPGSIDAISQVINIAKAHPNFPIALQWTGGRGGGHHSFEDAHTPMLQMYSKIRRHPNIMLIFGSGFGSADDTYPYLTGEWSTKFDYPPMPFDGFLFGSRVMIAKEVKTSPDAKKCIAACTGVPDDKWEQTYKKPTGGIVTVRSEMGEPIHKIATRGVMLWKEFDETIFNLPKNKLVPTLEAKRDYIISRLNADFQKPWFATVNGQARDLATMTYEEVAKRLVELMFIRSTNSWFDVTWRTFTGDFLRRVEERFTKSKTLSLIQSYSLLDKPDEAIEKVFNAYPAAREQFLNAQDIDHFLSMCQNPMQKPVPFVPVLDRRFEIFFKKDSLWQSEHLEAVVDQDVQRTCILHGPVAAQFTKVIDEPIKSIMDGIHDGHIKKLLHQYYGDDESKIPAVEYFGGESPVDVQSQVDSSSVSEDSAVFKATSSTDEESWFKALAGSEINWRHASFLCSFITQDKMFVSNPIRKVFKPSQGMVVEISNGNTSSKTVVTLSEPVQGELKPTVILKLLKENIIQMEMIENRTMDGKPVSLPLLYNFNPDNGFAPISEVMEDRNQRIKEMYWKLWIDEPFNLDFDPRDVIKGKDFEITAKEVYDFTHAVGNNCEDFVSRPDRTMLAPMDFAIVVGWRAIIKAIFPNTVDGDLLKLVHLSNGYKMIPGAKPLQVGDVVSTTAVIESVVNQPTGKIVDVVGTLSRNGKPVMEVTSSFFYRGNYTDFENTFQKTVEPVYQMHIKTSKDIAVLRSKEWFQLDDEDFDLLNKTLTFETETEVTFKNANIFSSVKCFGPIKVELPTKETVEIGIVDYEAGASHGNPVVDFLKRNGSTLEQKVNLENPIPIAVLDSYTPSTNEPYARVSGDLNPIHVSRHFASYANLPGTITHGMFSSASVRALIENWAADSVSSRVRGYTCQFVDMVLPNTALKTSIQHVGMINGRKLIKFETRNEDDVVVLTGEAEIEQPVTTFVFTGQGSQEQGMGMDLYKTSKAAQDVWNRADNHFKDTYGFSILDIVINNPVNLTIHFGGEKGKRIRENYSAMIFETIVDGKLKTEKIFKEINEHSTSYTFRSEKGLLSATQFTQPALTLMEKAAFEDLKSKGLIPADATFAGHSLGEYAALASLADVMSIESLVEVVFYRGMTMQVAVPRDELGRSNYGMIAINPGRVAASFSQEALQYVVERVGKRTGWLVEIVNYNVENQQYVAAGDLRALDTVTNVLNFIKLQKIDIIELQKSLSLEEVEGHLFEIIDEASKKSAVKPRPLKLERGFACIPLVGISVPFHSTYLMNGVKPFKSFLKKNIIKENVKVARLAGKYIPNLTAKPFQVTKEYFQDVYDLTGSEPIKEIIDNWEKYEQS
T1 sequence (P19097 whole entry): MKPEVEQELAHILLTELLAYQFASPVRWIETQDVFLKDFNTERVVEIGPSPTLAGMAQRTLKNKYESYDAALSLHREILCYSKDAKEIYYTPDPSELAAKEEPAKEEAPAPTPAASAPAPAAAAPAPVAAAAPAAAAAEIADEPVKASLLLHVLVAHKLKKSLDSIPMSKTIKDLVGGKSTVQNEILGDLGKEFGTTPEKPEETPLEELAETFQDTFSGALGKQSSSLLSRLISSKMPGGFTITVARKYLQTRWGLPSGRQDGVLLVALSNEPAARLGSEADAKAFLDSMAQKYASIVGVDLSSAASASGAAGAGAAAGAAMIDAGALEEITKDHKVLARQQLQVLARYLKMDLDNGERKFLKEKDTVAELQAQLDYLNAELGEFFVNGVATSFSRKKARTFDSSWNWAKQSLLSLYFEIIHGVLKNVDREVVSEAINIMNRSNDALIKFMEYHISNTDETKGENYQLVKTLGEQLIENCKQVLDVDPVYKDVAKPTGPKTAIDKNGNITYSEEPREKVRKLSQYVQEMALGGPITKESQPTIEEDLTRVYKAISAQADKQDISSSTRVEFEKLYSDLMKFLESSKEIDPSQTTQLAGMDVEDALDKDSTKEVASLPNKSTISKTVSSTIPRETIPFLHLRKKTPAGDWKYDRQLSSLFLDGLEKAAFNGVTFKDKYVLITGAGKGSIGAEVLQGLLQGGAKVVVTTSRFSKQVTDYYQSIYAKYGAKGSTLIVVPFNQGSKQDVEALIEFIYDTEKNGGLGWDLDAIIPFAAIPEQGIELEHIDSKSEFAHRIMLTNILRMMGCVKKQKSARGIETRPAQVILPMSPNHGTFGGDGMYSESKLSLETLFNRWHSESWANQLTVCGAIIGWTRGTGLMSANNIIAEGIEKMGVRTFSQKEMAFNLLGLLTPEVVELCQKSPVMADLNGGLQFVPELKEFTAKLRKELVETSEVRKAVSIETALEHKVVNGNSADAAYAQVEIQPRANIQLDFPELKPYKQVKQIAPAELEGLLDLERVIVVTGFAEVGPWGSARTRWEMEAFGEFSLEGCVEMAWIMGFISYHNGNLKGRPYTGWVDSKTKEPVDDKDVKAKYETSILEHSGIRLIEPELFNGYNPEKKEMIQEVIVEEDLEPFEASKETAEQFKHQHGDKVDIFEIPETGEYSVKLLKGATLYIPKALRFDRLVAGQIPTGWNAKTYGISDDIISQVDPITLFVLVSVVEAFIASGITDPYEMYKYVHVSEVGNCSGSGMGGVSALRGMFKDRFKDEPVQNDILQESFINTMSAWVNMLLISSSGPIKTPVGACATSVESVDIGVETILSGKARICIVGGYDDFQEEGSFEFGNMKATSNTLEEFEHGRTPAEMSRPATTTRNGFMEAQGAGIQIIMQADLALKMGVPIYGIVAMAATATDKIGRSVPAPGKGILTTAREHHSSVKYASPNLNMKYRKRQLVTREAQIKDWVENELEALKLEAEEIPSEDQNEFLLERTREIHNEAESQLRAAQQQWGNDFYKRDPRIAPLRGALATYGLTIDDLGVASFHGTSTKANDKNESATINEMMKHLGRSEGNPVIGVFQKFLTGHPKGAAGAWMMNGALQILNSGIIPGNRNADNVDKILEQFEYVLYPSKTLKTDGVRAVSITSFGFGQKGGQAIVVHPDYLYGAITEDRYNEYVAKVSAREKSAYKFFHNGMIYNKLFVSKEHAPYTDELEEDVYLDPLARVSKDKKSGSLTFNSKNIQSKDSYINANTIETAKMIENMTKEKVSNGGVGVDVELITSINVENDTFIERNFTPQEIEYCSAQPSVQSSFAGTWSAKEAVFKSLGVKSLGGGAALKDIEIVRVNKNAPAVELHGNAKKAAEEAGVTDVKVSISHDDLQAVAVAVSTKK

C/C=C/C/C=C/CCC(=O)[C@H]1O[C@H]1C(N)=O [Cerulenin, 2,3-Epoxy-4-oxo-7,1-dodecadienamide]
lacZ gene expression, OLE1 promoter strain (OLE1 promoter): increase in lacZ gene expression | induction of promoter activity (OLE1 promoter; 0.2 μg/ml): partial induction of promoter activity | induction of promoter activity (OLE1 promoter; 0.9 μM): 50% | increase in the level of chemiluminescence relative to uninduced control (OLE1 promoter; 2.0 μg/ml): 100 fold | induction of promoter activity (OLE1 promoter; 2.0 μg/ml): maximum induction of promoter activity | induction of promoter activity (OLE1 promoter; 9 μM): maximum induction of promoter activity | increase in chemiluminescence (OLE1 promoter; 9 μM, OLE1 promoter strain): 100-300 fold | OLE1 Fold-induction (100 μM) (OLE1 promoter; 100 μM, Pole1-lacZ reporter strain): 479 Fold | lacZ gene expression, YOL101c promoter strain (YOL101c promoter): increase in lacZ gene expression | increase in chemiluminescence (YOL101c promoter; 9 μM, YOL101c promoter strain): 100-300 fold | lacZ gene expression, YGL039w promoter strain (YGL039w promoter): increase in lacZ gene expression | inhibition of fungal growth (S. cerevisiae mdr mutant; 0.2 μg/ml): no detectable inhibition of fungal growth | inhibition of fungal growth (S. cerevisiae mdr mutant; 0.9 μM): no detectable inhibition of fungal growth | inhibition of fungal growth (S. cerevisiae mdr mutant; 2.0 μg/ml): maximum inhibition of fungal growth | inhibition of fungal growth (S. cerevisiae mdr mutant; 9 μM): maximum inhibition of fungal growth | MIC (S. cerevisiae mdr mutant): 0.2 to 0.9 µM (≈ 0.0447 to 0.201 µg/mL) | MIC (S. cerevisiae mdr mutant; read-out: MIC value): 0.2 µM (≈ 0.0447 µg/mL) | inhibition at 100 µM ([1]; 100 μM, within the first 30 minutes, read-out: inhibition of fatty acid synthesis (NADPH oxidation)): 80 to 90% | inhibition at 100 µM ([1]; read-out: FAS-NADPH ox % Inhibition @ 100 μM): 81% | IC50 ([1]; read-out: FAS-NADPH ox IC50): 700 to 1300 nM | inhibition at 100 µM [2]: 80 to 90% | gene induction of OLE1, YOL101c and YGL039w (mRNA) [3]: most highly induced genes

Clc1ccc(COC(Cn2ccnc2)c2ccc(Cl)cc2Cl)c(Cl)c1 (stereo not drawn) [miconoazole]
induction of the OLE1 reporter (OLE1 promoter): induce this reporter

CCCCCCC(=O)CCCCCC/C=C/C[C@@H](O)[C@H](O)[C@@](N)(CO)C(=O)O [myriocin]
induction of the OLE1 reporter (OLE1 promoter): induce this reporter
